Measurements from ChEMBL document CHEMBL4495565, “Cytopathic SARS-Cov2 screening on VERO-E6 cells in a large repurposing effort” (2020).
“And” between values parts separate entries of the source, which are not always exact repeats. Equal entries are not always repeated. Structures can show the parent of a compound that is named as a salt.

Tests used:
SARS-CoV-2 = experiment: microbe, parasite or virus in culture; assay type: functional, organism-based, Chlorocebus sabaeus, Vero C1008
in vitro = details: chlorocebus sabaeus
[1] = Severe acute respiratory syndrome coronavirus 2, Vero C1008, 48 h
[2] = VERO-E6 cells (Vero C1008), uninfected, CC50

SMILES | CC50 at 48 h (in vitro; [2]) | also measured
CCN1CCC(n2cc(CNc3cc(Cl)c4ncc(C#N)c(Nc5ccc(F)c(Cl)c5)c4c3)nn2)CC1 |  | IC50 (SARS-CoV-2; [1]): 16.6 µM
Cn1nc(C(C)(C)C)cc1C(=O)N[C@@H](Cc1cccc(Cl)c1)C(=O)NCC#N | 0.03 µM | 
Cc1cccc(Nc2nc(-c3ccncc3)cs2)c1 | 31.5 µM | 
c1cncc(CN2CCC(n3ncc4c(N5CCOCC5)nc(-c5ccc6[nH]ccc6c5)nc43)CC2)c1 | 9.55 µM | 
O=C(O)Cc1cccc(OCCCN(Cc2cccc(C(F)(F)F)c2Cl)CC(c2ccccc2)c2ccccc2)c1 | > 33 µM | 
O=C1Nc2cc(Br)ccc2/C1=C1/Nc2ccccc2/C1=N\O [6BIO] | > 33 µM | 
Cc1cc(O[C@@H](CCC(F)(F)F)c2ccc(C(=O)NCCC(=O)O)cc2)cc(C)c1-c1ccc(C(C)(C)C)cc1 [ADOMEGLIVANT] | > 33 µM | 
CCN1CCN(Cc2ccc(-c3cc4c(N[C@H](C)c5ccccc5)ncnc4[nH]3)cc2)CC1 [AEE-788] | > 33 µM | IC50 (SARS-CoV-2; [1]): 3.94 µM
Nc1nc(N)c2nc(CNc3ccc(C(=O)N[C@@H](CCC(=O)O)C(=O)O)cc3)cnc2n1 [AMINOPTERIN] | 0.03 µM | 
CC(=O)[C@]1(N)Cc2c(O)c3c(c(O)c2[C@@H](O[C@H]2C[C@H](O)[C@H](O)CO2)C1)C(=O)c1ccccc1C3=O [AMRUBICIN] | > 33 µM | IC50 (SARS-CoV-2; [1]): 0.33 µM
Oc1c(Cl)cc(Cl)cc1Sc1cc(Cl)cc(Cl)c1O [BITHIONOL] | 9.94 µM | 
C[C@H]1CCC/C=C/[C@@H]2C[C@H](O)C[C@H]2[C@H](O)/C=C/C(=O)O1 [BREFELDIN A] | 0.06 µM | 
Nc1nc(NC[C@H]2CC[C@H](CNS(=O)(=O)c3cccc4ccccc34)CC2)nc2ccccc12 [CGP-71683A] | 4.38 µM | 
CC(C)C(=O)OCC(=O)[C@@]12O[C@H](C3CCCCC3)O[C@@H]1C[C@H]1[C@@H]3CCC4=CC(=O)C=C[C@]4(C)[C@H]3[C@@H](O)C[C@@]12C [CICLESONIDE] |  | IC50 (SARS-CoV-2; [1]): > 33 µM
CCN(CC)CCOc1ccc(C(=C(Cl)c2ccccc2)c2ccccc2)cc1 [CLOMIPHENE CITRATE] |  | CC50 at 48 h (in vitro; vero c1008, CC50): > 33 µM
C[C@@H]1C[C@@H]([C@H](O)CC2CC(=O)NC(=O)C2)C(=O)[C@@H](C)C1 [CYCLOHEXIMIDE] | 10.2 µM | 
COc1ccc2cc1Oc1ccc(cc1)C[C@H]1c3cc(c(OC)cc3CCN1C)Oc1c(OC)c(OC)cc3c1[C@H](C2)N(C)CC3 [FANCHININ] | > 33 µM | 
COc1ccccc1[C@H](Cn1c(=O)n(C(C)(C)C(=O)O)c(=O)c2c(C)c(-c3ncco3)sc21)OC1CCOCC1 [FIRSOCOSTAT] | 0.11 µM | 
CC(C)(C)NCc1ccc(Nc2ccnc3cc(Cl)ccc23)cc1O [GSK-369796] | 12.4 µM | 
CCCCN(CCCC)CCC(O)c1cc2c(Cl)cc(Cl)cc2c2cc(C(F)(F)F)ccc12 (stereo unspecified) [HALOFANTRINE] | > 33 µM | 

SMILES | CC50 at 48 h (in vitro; [2]) | also measured
CN(C)C(=O)C(CCN1CCC(O)(c2ccc(Cl)cc2)CC1)(c1ccccc1)c1ccccc1 [LOPERAMIDE] | > 33 µM | 
Cn1cc(-c2ccncc2)c(-c2ccc(OCc3ccc4ccccc4n3)cc2)n1 [MARDEPODECT] | > 33 µM | 
Cc1ccc(NC(=O)c2ccc(CN3CCN(C)CC3)cc2)cc1Nc1nc(-c2cccnc2)cs1 [MASITINIB] | > 33 µM | 
Cc1nc(N)nc(N)c1-c1ccc(Cl)c(Cl)c1 [METOPRINE] | 0.12 µM | 
CC[C@@]1([C@H]2O[C@H]([C@H]3O[C@@](O)(CO)[C@H](C)C[C@@H]3C)C[C@H]2C)CC[C@H]([C@@]2(C)CC[C@]3(C[C@H](O)[C@@H](C)[C@@H]([C@H](C)[C@H](OC)[C@@H](C)C(=O)O)O3)O2)O1 [MONENSIN SODIUM] |  | IC50 (SARS-CoV-2; [1]): 3.18 µM
COc1c(C)c2c(c(O)c1C/C=C(\C)CCC(=O)O)C(=O)OC2 [MYCOPHENOLIC ACID] |  | IC50 (SARS-CoV-2; vero c1008): 3.43 µM and 11.1 µM and > 33 µM
Cc1c(O)cccc1C(=O)N[C@@H](CSc1ccccc1)[C@H](O)CN1C[C@H]2CCCC[C@H]2C[C@H]1C(=O)NC(C)(C)C [NELFINAVIR MESYLATE] | > 33 µM | 
COc1ccc2c(c1)[C@]1(C[C@H]1c1ccc3c(/C=C/c4ccc(CN5C[C@@H](C)O[C@@H](C)C5)cc4)n[nH]c3c1)C(=O)N2 [OCIFISERTIB] | > 33 µM | 
Cc1[nH]c(/C=C2\C(=O)Nc3ccc(S(=O)(=O)Cc4c(Cl)cccc4Cl)cc32)c(C)c1C(=O)N1CCC[C@@H]1CN1CCCC1 [PHA-665752] | > 33 µM | 
C#CCC(Cc1cnc2nc(N)nc(N)c2n1)c1ccc(C(=O)N[C@@H](CCC(=O)O)C(=O)O)cc1 (stereo partly specified) [PRALATREXATE] |  | IC50 (SARS-CoV-2; [1]): 0.06 µM
Nc1ccc2cc3ccc(N)cc3nc2c1 [PROFLAVINE] | 2.67 µM | 
Cn1c(Nc2ccc(C(F)(F)F)cc2)nc2cc(Oc3ccnc(-c4ncc(C(F)(F)F)[nH]4)c3)ccc21 [RAF-265] | 9.19 µM | 
CC(C)(Sc1cc(C(C)(C)C)c(O)c(C(C)(C)C)c1)Sc1cc(C(C)(C)C)c(OC(=O)CCC(=O)O)c(C(C)(C)C)c1 [SUCCINOBUCOL] | 10.2 µM | 
COc1cc2c(N3CCN(C(=O)Nc4ccc(OC(C)C)cc4)CC3)ncnc2cc1OCCCN1CCCCC1 [TANDUTINIB] | > 33 µM | 
Nc1nc2c(ncn2[C@@H]2O[C@H](CO)[C@@H](O)[C@H]2O)c(=S)[nH]1 [THIOGUANOSINE] | > 33 µM | 
CCN(CC)CCOc1ccc2c(c1)C(=O)c1cc(OCCN(CC)CC)ccc1-2 [TILORONE] | 3.08 µM | 
O=C(Nc1ccc(Cl)cc1)Nc1ccc(Cl)c(Cl)c1 [TRICLOCARBAN] | 3.08 µM | 
CN1CCN(CCCN2c3ccccc3Sc3ccc(C(F)(F)F)cc32)CC1 [TRIFLUOPERAZINE HYDROCHLORIDE] | > 33 µM | 
COc1cc(NCc2ccc3nc(N)nc(N)c3c2C)cc(OC)c1OC [TRIMETREXATE] | 1.99 µM | 
